Data taken from ChEMBL document CHEMBL1157539, “Thousands of chemical starting points for antimalarial lead identification” (Nature, 2010).

What follows are compounds tested on Plasmodium falciparum (assay: GSK_TCMDC: Inhibition of Plasmodium falciparum 3D7 in whole erythrocytes, using parasite LDH activity as an index of growth.). Details: not given.
Type: functional, organism-based
`COc1ccc(-c2ccccc2)cc1NC(=S)NC1CCC(CN2CCC(c3c[nH]c4ccccc34)CC2)CC1` (stereo not drawn) gave an XC50 of 740 nM.

Same assay, conditions: Plasmodium falciparum, 3D7
Compound `CCN(CC)CCN(Cc1ccc(-c2ccc(C(F)(F)F)cc2)cc1)C(=O)Cn1c(CCc2cc(F)cc(F)c2)nc(=O)c2ccccc21` has an XC50 of 983 nM. Work on `Cc1c(Cc2ccc(C(C)C)cc2)cnc2nc(N)nc(N)c12` yielded an XC50 of 298 nM. Work on `COc1cc(NCC(O)CNc2cc(Cl)nc3ccccc23)nc2ccccc12` (stereo not drawn) yielded an XC50 of 416 nM. `CC(C)Sc1ccc(Cl)cc1CON1C(=N)N=C(N)NC1(C)C` was tested, and the XC50 was 3.2 nM. `Fc1ccc(OC2CN(c3nccc(NCc4ccccc4Cl)n3)C2)cc1` was tested, and the XC50 was 898 nM. `CN1CC(c2ccc(Cl)c(Cl)c2)OC1=N` (stereo not drawn) gave an XC50 of 283 nM. `COc1ccc2nccc([C@@H](O)CN3CCC(NCCOc4c(C)cccc4F)CC3)c2c1` showed an XC50 of 347 nM. `CCCC1N=C(N)N=C(N)N1c1cccc([N+](=O)[O-])c1` (stereo not drawn) was tested, and the XC50 was 760 nM. Work on `O=C(NC1CC1)c1ccc(N2CCN(Cc3ccc(Cl)cc3)CC2)nc1` yielded an XC50 of 1340 nM. `COc1ccc2nccc([C@@H](O)CN3CCC(NC(=O)c4ccc(Oc5ccccc5)cc4)CC3)c2c1` was tested, and the XC50 was 1380 nM. Compound `COc1ccc(NC(=O)[C@H](CC(C)C)Nc2cc(C)nc(NCCOc3ccccc3)n2)cc1` has an XC50 of 800 nM. `CCOc1c(Cl)cc(Cl)cc1CNCCCNc1nc2ccccc2[nH]1` gave an XC50 of 831 nM. `Cc1ccc2[nH]c(-c3ccccc3Nc3ccnc4cc(-c5nccs5)ccc34)nc2c1` gave an XC50 of 190 nM. Work on `CS(=O)(=O)c1ccc(-c2nc(NCC3CCCCC3)cc(C(F)(F)F)n2)cc1` yielded an XC50 of 667 nM. `O=C1C(c2ccccc2)=C(Nc2ccc(OC(F)(F)F)cc2)c2ccccc21` showed an XC50 of 107 nM. In the case of `O=c1cc(NCCCNCc2scc3c(Cl)cc(C(F)(F)F)nc23)[nH]c2ccccc12`, the XC50 is reported as 754 nM. `O=C(/C=C/c1ccc(Cl)cc1)NCCCCCN1CCC(C(=O)Nc2ccc(Cl)c(Cl)c2)CC1` gave an XC50 of 766 nM. In the case of `CCOc1ccccc1CNc1nccc(NCc2ccc(Cl)cc2Cl)n1`, the XC50 is reported as 1100 nM. Compound `CCCC(CC)n1ccc2c3c(N)nc(N)nc3ccc21` (stereo not drawn) has an XC50 of 5.92 nM. For `Cc1c(C)n(C2CCCC2)c2ncnc(OC3CCN(CC(=O)NCC4CC4)CC3)c12`, the XC50 was 891 nM. Work on `Cc1ccc(CNC(=O)[C@H](Cc2ccccc2)Nc2cc(C)nc(NCc3ccccc3C)n2)cc1` yielded an XC50 of 803 nM. For `Cc1cccc(CNc2nc(C)cc(N[C@@H](CC(C)C)C(=O)NCCOc3ccccc3)n2)c1`, the XC50 was 1080 nM. `COc1ccc(-c2ccc(S(=O)(=O)Nc3cc4c(cc3OC(C)C)CCN(C)CC4)cc2)cc1` showed an XC50 of 686 nM. For `Nc1c2c(nc3ccc(NC(=O)CCCCCCc4ccccc4)cc13)CCCC2`, the XC50 was 248 nM. `c1cc(CN2CCCCC2)cc(OCCCNc2ccnc3ccccc23)c1` showed an XC50 of 433 nM. Work on `CCc1c(CCNCCCCCCNCCc2ccc([N+](=O)[O-])cc2)ccc(OC)c1OC` yielded an XC50 of 727 nM. `CCNc1cc(C(=O)N[C@@H](Cc2ccccc2)[C@H](O)CNC2(CC)CCCCC2)cc(N2CCCCS2(=O)=O)c1` showed an XC50 of 265 nM. `Cc1ccc2[nH]c(C)cc(=NN=Cc3ccccc3Cl)c2c1` was tested, and the XC50 was 752 nM. In the case of `COc1ccc(Nc2ncc3c(-c4cccc(NC(=O)c5ccccc5)c4)c[nH]c3n2)cc1OC`, the XC50 is reported as 461 nM. Work on `Cn1nc(-c2cccc(CN[C@@H]3CCc4ccc(O)cc43)c2)c2cnc(NCCCN3CCCC3)nc21` yielded an XC50 of 831 nM. `CCC(C)c1ccc(NC(=O)Nc2ccc(Cn3ncc(N4CCCNCC4)c(Cl)c3=O)cc2)cc1` (stereo not drawn) gave an XC50 of 1030 nM. `COc1ccc(NC(=O)C2c3ccccc3C(=O)N(C3CCCC3)C2c2cccs2)cc1` (stereo not drawn) gave an XC50 of 1710 nM. For `COc1ccc(-n2nc(C(=O)NCc3ccccc3OC)c3ccccc3c2=O)cc1`, the XC50 was 217 nM. Work on `O=C(Nc1cccc(C(F)(F)F)c1)N1CCOC(CCN2CCC(c3ccccc3)CC2)(c2ccc(Cl)c(Cl)c2)C1` (stereo not drawn) yielded an XC50 of 1110 nM. `CCC(N)(C#Cc1ccc(-c2c(C)[nH]c(C)c(Br)c2=O)cc1)CC` gave an XC50 of 41.5 nM. `CCOc1cc(C(=O)Nc2ccc3nc(N(CC)CC)cc(C)c3c2)cc(OCC)c1OCC` showed an XC50 of 696 nM. Work on `CC(C)(C)c1ccc(S(=O)(=O)Nc2cc(Cl)ccc2Cn2ccc(N3CCNCC3)nc2=O)cc1` yielded an XC50 of 827 nM. In the case of `Clc1ccc2nc(-c3cccnc3)[nH]c2c1`, the XC50 is reported as 38.4 nM. With `O=C(NCCCCN1CCC(c2c[nH]c3ccccc23)CC1)c1ccc(-c2ccc(C(F)(F)F)cc2)cc1` the XC50 was 798 nM. In the case of `Cc1cc(Br)cnc1CCCCNC1=NC(=O)CN1C`, the XC50 is reported as 366 nM. For `CCn1c(C2CCN(CCC3CCN(C(=O)/C=C/c4ccc(Cl)c(Cl)c4)CC3)CC2)nc2ccccc21`, the XC50 was 1080 nM. In the case of `Cc1cccc2nc(-c3ccc(-c4cccc(CNCCNC(=O)c5ccnn5C)c4)s3)[nH]c12`, the XC50 is reported as 216 nM. `Cc1c(F)cc(C(=O)NC2CC2)cc1-c1ccc2c(cnn2S(=O)(=O)c2cccs2)c1` gave an XC50 of 862 nM. For `COc1ccc(C(F)(F)F)cc1N1CCN(CCCCNC(=O)c2ccc(NC(=O)c3ccc(Cl)cc3)cc2)CC1`, the XC50 was 909 nM. `O=C(CCCCCc1ccccc1)NC1CCC(CN2CCC(c3c[nH]c4ccccc34)CC2)CC1` (stereo not drawn) gave an XC50 of 1140 nM. With `CN1CCN(Cc2cccc(-c3ccc4c(Nc5ccc(F)cc5Cl)ccnc4c3)c2)CC1` the XC50 was 156 nM. `O=C(Nc1ccc(N2CCN(Cc3ccccc3Cl)CC2)cc1)c1ccc([N+](=O)[O-])o1` gave an XC50 of 975 nM. `O=C(CCCCCNC(=O)c1ccc(O)c(-c2ccc(Cl)c(Cl)c2)c1)NCCc1ccc(Cl)c(Cl)c1` gave an XC50 of 756 nM. Compound `Cc1cc(C)cc(OCC(O)CN(CCN2CCOCC2)C(=O)Nc2ccc(Br)cc2)c1` (stereo not drawn) has an XC50 of 1030 nM. `COc1cccc(C(O)CNc2ccnc(Nc3ccc(Cl)cc3)n2)c1` (stereo not drawn) was tested, and the XC50 was 606 nM. Work on `O=c1[nH]c2c(cc1CNC1CCCCC1)c(-c1cccc(F)c1)nn2-c1ccccc1` yielded an XC50 of 945 nM. With `FC(F)(F)c1ccc2[nH]ccc(=NN=CC=Cc3ccccc3)c2c1` the XC50 was 1020 nM. Work on `Cc1nc(N/C(N)=N/C(=O)NC2CCCCC2)nc2ccccc12` yielded an XC50 of 791 nM. For `FC(F)(F)COc1ccc(CCNCCCCNCCc2ccc(OCC(F)(F)F)c3ccccc23)c2ccccc12`, the XC50 was 648 nM. `O=C(NC1CCN(Cc2ccccc2)CC1)c1ccc(CNC2CCN(Cc3ccccc3)CC2)cc1` gave an XC50 of 872 nM. `COc1ccc(NC(=O)/C=C/c2ccccc2Cl)cc1OCCN1CCN(c2ccncc2)CC1` was tested, and the XC50 was 728 nM. `COc1ccc(S(=O)(=O)N2CCCc3ccc(Br)cc32)cc1N1CCN(C(=O)C(Cl)(Cl)Cl)CC1` was tested, and the XC50 was 809 nM. `CC(C)c1cc(Oc2c(I)cc(CCNCc3ccccc3)cc2I)ccc1O` was tested, and the XC50 was 536 nM. Work on `CN1CCN(c2ccc(Nc3c(C(N)=O)cnc4cc(-c5ccoc5)ccc34)cc2C(F)(F)F)CC1` yielded an XC50 of 785 nM. `O=C(Nc1cccc(-c2cccc(-c3nc4cc(C(F)(F)F)ccc4[nH]3)c2)c1)c1ccncc1` gave an XC50 of 201 nM. `Oc1ccc(CN2Cc3ccccc3OC3(CCN(Cc4c[nH]c5cnccc45)CC3)C2)cc1` showed an XC50 of 1170 nM. `Cc1cc(N[C@@H](CC(C)C)C(=O)NCCOc2ccccc2)nc(Nc2ccccc2)n1` showed an XC50 of 1110 nM. `CC(C)(C)C(=O)Nc1ccccc1Oc1ccc(Cl)cc1` was tested, and the XC50 was 7.48 nM. For `Cc1ccc(CNC(=O)c2ccc(CN3CCCN(Cc4ccsc4)CC3)cc2)cc1`, the XC50 was 868 nM. `O=C(NCCCCCN1CCC(c2c[nH]c3ccccc23)C1)Nc1ccc(Cl)c(Cl)c1` (stereo not drawn) gave an XC50 of 811 nM. `O=C(Nc1cccc(-c2ccc(-c3nc4cc(C(F)(F)F)ccc4[nH]3)cc2)c1)Nc1ccc(F)c(F)c1F` was tested, and the XC50 was 259 nM. `CCCCCCCN(Cc1ccc(OC(C)(C)C(=O)OCC)cc1)C(=O)Nc1ccc(Cl)cc1OCC` was tested, and the XC50 was 817 nM. For `Cc1cc(Nc2ccccc2)nc(Nc2ccccc2C)n1`, the XC50 was 1040 nM. Compound `CCCn1c(O)nnc1SCC(=O)Nc1cc(Cl)ccc1Cl` has an XC50 of 997 nM. `CN1CCN(c2cc3c(Nc4ccc5c(cnn5Cc5ccccc5)c4)ncnc3cn2)CC1` showed an XC50 of 1130 nM. Work on `O=S(=O)(c1ccccc1OC(F)(F)F)C1CC2CCC(C1)N2S(=O)(=O)c1cccc(C(F)(F)F)c1` (stereo not drawn) yielded an XC50 of 665 nM. `CS(=O)(=O)CCNCc1ccc(-c2cc3c(Nc4ccc(OCc5cccc(F)c5)c(Cl)c4)ncnc3s2)[nH]1` was tested, and the XC50 was 844 nM. For `COc1ccc2nc3cc(Cl)ccc3c(Nc3ccc(Oc4ccc(Nc5c6ccc(Cl)cc6nc6ccc(OC)cc56)cc4)cc3)c2c1`, the XC50 was 859 nM. `N#Cc1c(Cl)cccc1Oc1ccc(S(=O)(=O)N2CCC(CN3CCC(c4c[nH]c5ccccc45)CC3)CC2)cc1` was tested, and the XC50 was 745 nM. `COc1ccc2nccc([C@@H](O)CN3CCC(NC(=O)c4[nH]c5ccccc5c4-c4ccccc4)CC3)c2c1` was tested, and the XC50 was 904 nM. Work on `O=[N+]([O-])c1cccc(CNCC2CCC(CNCc3cccc([N+](=O)[O-])c3)CC2)c1` (stereo not drawn) yielded an XC50 of 138 nM. `Cc1ccc2nc(-c3ccc(C(=O)NCc4ccc(Cl)c(Cl)c4)cc3)[nH]c2c1C` was tested, and the XC50 was 790 nM. `c1ccc(Oc2ccc(Nc3ccnc4cc(-c5cccc(CN6CCOCC6)c5)ccc34)cc2)cc1` gave an XC50 of 336 nM. With `CCCc1c(C(=O)Nc2ccc3c(c2)CCN(C2CCC2)CC3)cnn1-c1ccc(Cl)cc1` the XC50 was 858 nM. `CN1CCN(c2ccnc3ccc(NC(=O)Nc4cccc5c(Br)cccc45)cc23)CC1` was tested, and the XC50 was 153 nM. For `Cc1cc(=NN=Cc2ccc(F)cc2)c2cc(F)ccc2[nH]1`, the XC50 was 644 nM. With `CC(=O)Nc1ccc(OCCN(CC(F)(F)F)c2ccc(C#N)cc2C(F)(F)F)cc1` the XC50 was 767 nM. `CC(C)C[C@H](NC(=O)c1cccc(F)c1)C(=O)N[C@H](/C=N/NC(=O)c1ccccc1)CCc1ccccc1` was tested, and the XC50 was 715 nM. `Cc1ccc(CNC(=O)[C@H](CCCN)Nc2cc(C)nc(NCC3CCCCC3)n2)cc1` gave an XC50 of 1220 nM. `Cc1cc(=NN=Cc2ccccc2Cl)c2cc(C(F)(F)F)ccc2[nH]1` showed an XC50 of 858 nM. `COc1cc(CCNc2nc(NCc3ccccc3-c3ccccc3)nc(N3CCC(N)CC3)n2)ccc1O` was tested, and the XC50 was 817 nM. In the case of `O=C(Nc1ccc2ccccc2c1)N1CCC(NCc2cccc([N+](=O)[O-])c2)CC1`, the XC50 is reported as 855 nM. `COc1cc(CNCCCCCCNCc2cc(OC)cc3ccccc23)c2ccccc2c1` was tested, and the XC50 was 590 nM. With `CC(C)S(=O)(=O)N1CCN(Cc2ccc3c(c2)nc(NC(=O)c2ccsc2)n3C[C@H](O)c2ccccc2)CC1` the XC50 was 271 nM. With `O=C(Nc1cccc(Cl)c1Cl)N[C@H]1CCN(CCCCCNC(=O)C2CC2c2ccc(Cl)c(Cl)c2)C1` (stereo partly drawn) the XC50 was 1280 nM. In the case of `COc1cc(F)c2nccc([C@@H](O)CN3CCC(NCc4cc5c(cc4F)OCCO5)CC3)c2c1`, the XC50 is reported as 679 nM. `O=C(Nc1ccc(N2CCCN(Cc3cccc(F)c3)CC2)cc1)c1ccccc1` gave an XC50 of 961 nM. For `NC(=O)N1CCN(Cc2ccc(Br)cc2)CC1`, the XC50 was 619 nM. Work on `COc1ccc(-c2ccccc2)cc1NC(=S)NC1CCC(CN2CCC(c3c[nH]c4ccccc34)CC2)CC1` (stereo not drawn) yielded an XC50 of 652 nM. Compound `CCCCCCNC(=O)C1Cc2c([nH]c3ccc(F)cc23)C2(CCN(Cc3ccccc3)CC2)N1` (stereo not drawn) has an XC50 of 871 nM. Work on `Cc1nc2nc(N)nc(N)c2c(C)c1Cc1ccc([N+](=O)[O-])cc1` yielded an XC50 of 438 nM. In the case of `CC(C)C[C@H](NC(=O)c1cc2ccccc2s1)C(=O)N[C@H]1CCN(Cc2ccc(I)c(OCCN3CCCC3)c2)C1`, the XC50 is reported as 1350 nM.
